Reference: PMC12667295, “A surrogate barrier model for high-throughput blood-brain barrier permeability prediction: integrating LLC-PK1-MOCK/MDR1 Cells and lysosomal trapping correction” (Drug Delivery, 2025)
Read-outs that look alike come from different tables or passages of the source.

Legend:
in vitro [1] = assay: in vitro
Method: (§1) Stocks (10 mM) of test compounds were diluted to 5 μM with plasma or tissue homogenate and dialyzed at 37 °C for 6 hours in a shaking incubator. After incubation aliquots of both plasma or tissue homogenate and buffer from the device were taken and added to equal volumes of blank buffer and plasma or tissue homogenate respectively. Samples were then diluted in acetonitrile containing an internal standard prior to centrifugation and analysis of the supernatants by LC-MS/MS. The fu, plasma was calculated using Equation 1:(1) fu,plasma=Concbuffer chamber/Concsample chamber
(§2) Unbound fractions of test drugs in plasma (fu,plasma) and brain tissue (fu,brain). For compounds with existing rat plasma or brain protein-binding data from literature or internal studies, values were directly adopted.

in vitro [2] = assay: in vitro; remark: listed apart in the source
Method: as §1
Rat fraction unbound in brain (fu, brain) was determined as the ratio of concentration in buffer to that in brain.
as §2

in vivo = details: rat
From the text: In vivo unbound brain distribution data (Kp,uu,Brain) for 16 drugs and total brain distribution data (Kp,Brain) for 16 drugs was acquired from literature. […] For each tested compound, fifteen rats were randomly divided into five groups of three rats each. […] The time of execution of the rats by CO2 inhalation after administration was optimized according to the in vivo elimination rate to achieve five concentrations of different time points. After the rats were euthanized, cardiac puncture was performed immediately to remove as much whole blood as possible (~7 ml) from the systemic circulation (Quantitatively aliquot 0.2 ml of whole blood for the determination of drug concentration in plasma). Afterwards, the brain tissue was collected immediately and rinsed repeatedly with ice-cold saline 3 times. Then, the surface saline was blotted dry with clean filter paper to remove as much residual drug in the blood vessels as possible. Plasma samples were prepared by centrifugation of the blood samples at 2,500 g for 10 minutes at 4 °C. All brain samples were homogenized by adding 4-fold volume water. All samples were stored at -40 °C before LC-MS/MS analysis. […] The brain tissue partition coefficient (Kp, brain) and brain-to-plasma unbound drug partition ratio (Kp,uu, brain) are calculated according to the following formulas, respectively: Kp,brain=AUC(0−∞,brain)/AUC(0−∞,plasma)Kp,uu,brain=Kp,brain×(fu,tissue/fu,plasma)
Free brain-to-plasma distribution coefficients (Kp,uu,brain) of 41 drugs. Brain distribution coefficients (Kp,uu,brain) were calculated for 41 drugs. […] Plasma and brain concentration-time profiles were generated, and AUC(0-t) values for both matrices were calculated using WinNolin 8.1. Kp,brain was derived as the ratio of brain-to-plasma AUC(0-t).
Kp,uu,brain values were computed by normalizing Kp,brain to unbound fractions (fu,plasma and fu,brain).

P-gp (human MDR1) [3] = assay: in vitro; details: pig, LLC-PK1, pH 7.4
[4] = Bidirectional transport across LLC-PK1 MOCK monolayer (Transwell); details: pig; for recovery at 2 h, 2 µM: LLC-PK1 MOCK cell monolayer (Transwell);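 for all read-outs here: compound quantified by LC-MS/MS in donor and receiver wells, efflux ratio as B-A over A-B Papp, recovery relative to initial donor amount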
Method: (§3) Cells were passaged at 80−90% confluence (every 2−3 days) using trypsin-EDTA solution. […] The culture medium was replaced every other day, including 200 µL culture medium in the apical and 850 µL cell culture medium in the basolateral side. LLC-PK1 MOCK cells were used at passages of 3−30. LLC-PK1-MDR1 cells were cultured and passaged in the same manner as LLC-PK1 cells except at the density of 1 × 10^4 cells per well. LLC-PK1-MDR1 cells were used at passages of 3−25. For LLC-PK1 MOCK cells and LLC-PK1-MDR1 cells, the experiments were performed on the 4th and 7th day after seeding.
(§4) Samples were collected from the donor well at the start of the incubation (50 µL) as C0, and from the donor and receiver wells at the end of the incubation (50 µL). All samples were stored at - 40 °C for LC-MS/MS analysis.
(§5) Bidirectional transport experiments. […] The transwell experiments were conducted following above-mentioned procedure. […] When the recovery rate of the tested drug is below 80%, the possibility of intracellular accumulation should be considered. The polycarbonate (PC) membrane where cells are grown should be carefully peeled off from the cell culture medium and placed in 100 µL of HBSS buffer solution. […] The process was carried out on ice to prevent heat-induced degradation, applying a power in the range of 300 W for a total duration of 20 minutes. Thereafter, a quantitative analysis of the intracellular drug was conducted, and the drug recovery rate was recalculated based on this analysis.
(§6) The apparent permeability coefficient (Papp, cm/s) was calculated for each transport direction, A-B and B-A, using the following equation: Papp=dQ/dt×1/A×C0 where dQ/dt is the permeation rate (µmol/s), A is the surface area of the insert (0.33 cm^2, Corning), and C0 is the initial donor concentration (µM).
(§7) The efflux ratio (ER) is calculated as the ratio of Papp (B-A)/Papp (A-B). Recovery=TRcumrf+Cdf×VD/Cdi×VD×100% Where TRcumrf is the cumulative transported mass in the receiver chamber at the end of the incubation (nmol), Cdf is the concentration of the drug in the donor chamber at the end of the incubation (μM), VD is the volume of the donor chamber (mL), and Cdi is the initial concentration of the drug in the donor chamber (μM).
(§8) The method of the bidirectional transport experiment was the same as before.

P-gp (human MDR1) [5] = assay: Bidirectional transport across LLC-PK1-MDR1 monolayer stably expressing human MDR1 (P-gp) (Transwell); details: pig;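 note: 2 h incubation at 37 °C, receiver HBSS with 10 mM Hepes plus 1% BSA, LC-MS/MS of donor and receiver, recovery as receiver plus donor amount over initial donor amount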
[6] = cited from earlier work
in vitro [7] = details: pig, LLC-PK1 MOCK cell monolayer (Transwell), pH 7.4
Method: as §3, §4, §5, §6, §7, §8

[8] = footnote b, species not stated; ref https://go.drugbank.com; cited from earlier work
[9] = LLC-PK1, pH 7.4, Papp A-B, LLC-PK1 MOCK, 2 µM, 2 h, mean ± s, n = 3, BLQ = below 2 nM
[10] = LLC-PK1, pH 7.4, Papp A-B, LLC-PK1-MDR1, 2 µM, 2 h, mean ± s, n = 3

Structure (SMILES) | fraction unbound at 6 h, 5 µM (in vitro [2]; rat, brain homogenate) | Kp (in vivo; SD, iv, 1 mg/kg, Kp, Brain) | recovery at 2 h, 2 µM (P-gp (human MDR1) [3]) | Papp B→A at 2 h, 2 µM ([4]; LLC-PK1, pH 7.4) | Papp A→B at 2 h, 2 µM [4, 9] | Papp A→B at 2 h, 2 µM (P-gp (human MDR1) [5]; LLC-PK1, pH 7.4) | Papp B→A at 2 h, 2 µM (P-gp (human MDR1) [5]; LLC-PK1, pH 7.4) | recovery at 2 h, 2 µM (in vitro [7]) | further results
Cc1cc(=O)n(-c2ccccc2)n1C [Antipyrine] | 0.809 | 0.755 | 113 ± 1.41% | 23.6 ± 1.43 ×10⁻⁶ cm/s | 31.4 ± 3.13 ×10⁻⁶ cm/s | 30.9 ± 1.46 ×10⁻⁶ cm/s | 28.9 ± 1.75 ×10⁻⁶ cm/s | – | Protein binding in plasma (in vitro [1]; rat, 6 h, 5 µM): 15.0 ± 5.22%; Kp uu (in vivo; SD, iv, 1 mg/kg): 0.72; recovery at 2 h, 2 µM ([4]; pH 7.4, Recovery A-B, LLC-PK1 MOCK, 2 µM, 2 h, n = 3): 116 ± 7.41%; recovery at 2 h, 2 µM ([4]; pH 7.4, Recovery B-A, LLC-PK1 MOCK, 2 µM, 2 h, n = 3): 95.2 ± 2.32%
CCC1(c2cnc[nH]2)Cc2ccccc2C1 [Atipamezole] | – | – | – | 30.2 ± 4.52 ×10⁻⁶ cm/s | 33.9 ± 1.72 ×10⁻⁶ cm/s | 33.7 ± 5.21 ×10⁻⁶ cm/s | 27.6 ± 1.5 ×10⁻⁶ cm/s | – | Kp, Brain ([6]; ref Li [2019]): 4.40; Kp,uu,Brian ([6]; ref Li [2019]): 1.700
CC(NC(C)(C)C)C(=O)c1cccc(Cl)c1 (stereo not shown) [Bupropion] | – | – | – | 23.8 ± 0.67 ×10⁻⁶ cm/s | 27.3 ± 2.88 ×10⁻⁶ cm/s | 26.6 ± 2.58 ×10⁻⁶ cm/s | 19.5 ± 1 ×10⁻⁶ cm/s | – | Kp, Brain ([6]; ref Fridén [2009]): 9.78; Kp,uu,Brian ([6]; ref Fridén [2009]): 2.000
Cn1c(=O)c2c(ncn2C)n(C)c1=O [Caffeine] | 0.719 | – | – | 34.1 ± 1.49 ×10⁻⁶ cm/s | 34 ± 1.22 ×10⁻⁶ cm/s | – | 33.3 ± 1.49 ×10⁻⁶ cm/s | 121 ± 2.48% | fraction unbound at 6 h, 5 µM (in vitro [1]; rat, plasma): 0.772; Kp uu (in vivo): 0.576; Kp, Brain ([6]; ref Bohnert [2016]): 0.618; Papp A→B at 2 h, 2 µM (P-gp (human MDR1) [5]; [10]): 36.4 ± 1.42 ×10⁻⁶ cm/s
CN/C(=N/CCSCc1nc[nH]c1C)NC#N [Cimetidine] | 0.655 | 0.007 | 87.4 ± 9.65% | 0.28 ± 0.07 ×10⁻⁶ cm/s | 0.69 ± 0.07 ×10⁻⁶ cm/s | – | 33.9 ± 4.3 ×10⁻⁶ cm/s | 96.9 ± 13.3% | fraction unbound at 6 h, 5 µM (in vitro [1]; rat, plasma): 0.722; Kp uu (in vivo; SD, iv, 1 mg/kg): 0.008; Papp A→B at 2 h, 2 µM (P-gp (human MDR1) [5]; [10]): 1.32 ± 0.31 ×10⁻⁶ cm/s
COc1ccc2c(c1)[C@]13CCCC[C@@H]1[C@H](C2)N(C)CC3 [Dextromethorphan] | – | – | 93.6 ± 6.54% | 25.9 ± 0.91 ×10⁻⁶ cm/s | – | 18.8 ± 0.12 ×10⁻⁶ cm/s | 21.9 ± 3.18 ×10⁻⁶ cm/s | – | fraction unbound at 6 h, 5 µM (in vitro [1]): 0.35; fraction unbound at 6 h, 5 µM (in vitro [2]): 0.033; Kp (in vivo; SD, in vivo, iv, 1 mg/kg): 11.5; Kp uu (in vivo; SD, in vivo, iv, 1 mg/kg): 0.825; Papp A→B at 2 h, 2 µM ([4]; LLC-PK1, pH 7.4): 35.5 ± 2.09 ×10⁻⁶ cm/s; efflux ratio at 2 h, 2 µM ([4]; LLC-PK1, pH 7.4): 0.73; efflux ratio at 2 h, 2 µM (P-gp (human MDR1) [5]; LLC-PK1, pH 7.4): 1.17
CN(C)CCOC(c1ccccc1)c1ccccc1 [Diphenhydramine] | – | – | – | – | – | – | – | 101 ± 7.46% | –
COc1cc([C@@H]2c3cc4c(cc3[C@@H](O[C@@H]3O[C@@H]5CO[C@@H](C)O[C@H]5[C@H](O)[C@H]3O)[C@H]3COC(=O)[C@H]23)OCO4)cc(OC)c1O [Etoposide] | < 0.01 | 0.025 | 100 ± 2.47% | 0.16 ± 0.02 ×10⁻⁶ cm/s | – | 0.75 ± 0.1 ×10⁻⁶ cm/s | 3.68 ± 0.22 ×10⁻⁶ cm/s | 106 ± 0.11% | Kp (in vivo; SD, iv, 1 mg/kg, Kp,uu,Brian): 0.008; Protein binding in plasma [8]: 97.0^b %
COc1ccc2c(c1)c(CC(=O)O)c(C)n2C(=O)c1ccc(Cl)cc1 [Indomethacin] | – | – | 99.7 ± 4.24% | 18.9 ± 0.31 ×10⁻⁶ cm/s | 16.1 ± 2.07 ×10⁻⁶ cm/s | 14.9 ± 1.29 ×10⁻⁶ cm/s | 20.3 ± 2.74 ×10⁻⁶ cm/s | 109 ± 5.97% | Kp, Brain ([6]; ref Fridén [2009]): 0.01; Kp,uu,Brian ([6]; ref Fridén [2009]): 0.11; efflux ratio at 2 h, 2 µM ([4]; LLC-PK1, pH 7.4): 1.18; efflux ratio at 2 h, 2 µM (P-gp (human MDR1) [5]; LLC-PK1, pH 7.4): 1.36
